In patent publication US6818656B2, “Method and composition for treatment of irritable bowel disease” (University of Florida, priority 2001, dated 2004):

Tests used:
[1] = system: stress-induced fecal output; assay: Psychological stress-induced (water avoidance) IBS model, SC administration; format: in vivo; details: for Stool Output: 6-h collection
Text: (§1) For drug preparation and administration, the compounds were put into solution with sterile normal saline and sonicated briefly, if necessary. The drugs were made up at concentrations such that the rats received the drugs PO or SC at the rate of 1 cc per kilogram. Mice received the CHX(3,4,3)-trans IP at 1 cc per 100 grams. The solutions were made fresh the day of the study. Control animals received an equivalent amount of saline PO or SC.
Animal care and experimental procedures were approved by the Institutional Animal Care and Use Committee. Male Sprague-Dawley rats (250-350 g, Harlan Sprague-Dawley, Indianapolis, Ind.) were housed in polycarbonate cages in a temperature- and humidity-controlled room with a 12-hour light/dark cycle. The experiments were performed at the same time of the day to decrease diurnal variability. A typical experiment involved 20 rats: 5 saline-treated controls and 5 pretreated with polyamine analogues at each of three doses as either a SC injection or a PO gavage. The rats in the SC studies and in one set of experiments involving PO administration were allowed ad libitum access to a standard rodent diet and tap water until the morning of the experiment. Stress was initiated 30 minutes post drug as described below. In another set of experiments involving PO administration, the animals were fasted overnight but were allowed free access to water. […] In a final experiment, non-stressed control rats were injected with saline SC and housed in individual polycarbonate cages. The fecal output (number of pellets) of the stressed and unstressed animals was recorded at 30-min intervals for a 6-h period, during which they received no food or water.
(§2) To initiate the stress, water was added to each cage to a depth of at least 4.5 cm, i.e., within 0.5 cm of the top of the Pyrex dish. To avoid contact with water, the rats stand on the glass dish for the 6 h of the study. Stool output was expressed as the total number of fecal pellets excreted over the 6-h collection period. Percent reduction was calculated by dividing the mean value from the treated animals (T) by the mean value from the control animals (C), subtracting the resulting quotient from 1.0, and multiplying by 100 [i.e., (1.0−T/C)×100].
(§3) A one-tailed t-test assuming unequal variance was performed on the stool output data of the treated vs control (0 mg/kg) animals for each compound. A value of P<0.05 was considered significant.
The psychological stress-induced IBS model involves subjecting the rats to an aversive stimulus (water) and observing the increase in fecal output over a period of time. […] Control rats received an equivalent amount of saline SC.

[2] = system: stress-induced fecal output; assay: Psychological stress-induced (water avoidance) IBS model, PO administration by gavage; format: in vivo, rat; details: for oral activity against stress-induced fecal output (in words): PO gavage, non-fasted rats, 11.6-115.6 μmol/kg; for Stool Output: 6-hr collection; for % Reduction: vs stressed controls, 6 hr
Text: as §1
Animal care and experimental procedures were approved by the Institutional Animal Care and Use Committee. Male Sprague-Dawley rats (250-350 g, Harlan Sprague-Dawley, Indianapolis, Ind.) were housed in polycarbonate cages in a temperature- and humidity-controlled room with a 12-hour light/dark cycle. The experiments were performed at the same time of the day to decrease diurnal variability. A typical experiment involved 20 rats: 5 saline-treated controls and 5 pretreated with polyamine analogues at each of three doses as either a SC injection or a PO gavage. The rats in the SC studies and in one set of experiments involving PO administration were allowed ad libitum access to a standard rodent diet and tap water until the morning of the experiment. Stress was initiated 30 minutes post drug as described below. In another set of experiments involving PO administration, the animals were fasted overnight but were allowed free access to water. The animals were then stressed from ½ h to 2 h post-drug (data not shown). In a final experiment, non-stressed control rats were injected with saline SC and housed in individual polycarbonate cages. The fecal output (number of pellets) of the stressed and unstressed animals was recorded at 30-min intervals for a 6-h period, during which they received no food or water.
as §2, with “Once the drug had been administered, the animals were housed individually in polycarbonate cages containing a clear 70×50 mm Pyrex crystallization dish (Fisher, Pittsburgh, Pa.) inverted in the center and held in place with vacuum grease. To initiate” for “To initiate”
as §3
Because an orally active compound would be desirable for the treatment of IBS, selected analogues utilizing oral administration in the same model were assessed. In the initial studies animals were utilized that had been fasted overnight. Rodents were then given the drug of interest PO by gavage and stressed ½ h, 1 h, or 2 h post-drug. Unfortunately, because of the low baseline stool output in fasted control rats, the reductions in fecal output observed upon drug administration cannot be reported with any confidence (data not shown). Thereafter, only non-fasted animals were employed and were given the agents by gavage at doses of 11.6, 23.2, 57.8, or 115.6:mol/kg 30 minutes before initiating the stress. […] At doses of 11.6 and 23.2:mol/kg, CHX(3,4,3)-trans reduced stooling by about 80% (P=0.001 and <0.001, respectively). DEHSPM was effective at a dose of […]:mol/kg (40% diminution of fecal output; P<0.01), and DE(5,4,5) was active at doses of 23.2 and 57.8:mol/kg (55 and 73% reductions in fecal output, respectively; P<0.001 for both doses).

[3] = system: castor oil-induced diarrhea; details: doses equivalent to a 5 mg/kg dose of DEHSPM; cited from earlier work
[4] = Rattus norvegicus, 57.8 μmol/kg SC, vs stressed controls, 6 h, read-out: % Reduction
[5] = 2.3 μmol/kg SC, stress 30 min post drug
[6] = Rattus norvegicus, 11.6 μmol/kg SC, vs stressed controls, 6 h, read-out: % Reduction
[7] = Rattus norvegicus, 23.2 μmol/kg SC, vs stressed controls, 6 h, read-out: % Reduction
[8] = Rattus norvegicus, 2.3 μmol/kg SC, vs stressed controls, 6 h, read-out: % Reduction

| Compound | Stool Output ([1]; 57.8 μmol/kg SC) | inhibition in vivo at 57.8 µmol/kg [1, 4] | Stool Output [1, 5] | Stool Output ([1]; 11.6 μmol/kg SC) | Stool Output ([1]; 23.2 μmol/kg SC) | inhibition in vivo at 11.6 µmol/kg [1, 6] | also measured |
| --- | --- | --- | --- | --- | --- | --- | --- |
| C(CCNCCC1CCNCC1)CNCCC1CCNCC1 [Compound 15, N,N′-bis[2-(4-piperidinyl)ethyl]-1,4-diaminobutane] | 2.0 ± 2.0 number of fecal pellets | 82% | – | – | – | – | Stool Output ([1]; 2.32 μmol/kg SC): 8.8 ± 1.6 number of fecal pellets; Stool Output ([1]; 11.57 μmol/kg SC): 8.2 ± 3.1 number of fecal pellets; oral activity against stress-induced fecal output (in words) [2]: only CHX(3,4,3)-trans, DEHSPM, and DE(5,4,5) showed any activity at all |
| CC(C)CNCCCNCCCCNCCCNCC(C)C [Compound 7] | – | – | 15.9 ± 5.7 number of fecal pellets | 12.2 ± 2.7 number of fecal pellets | 6.6 ± 3.1 number of fecal pellets | 34% | toxic effects observed in stressed rats ([1]; 23.2 μmol/kg SC): ^gToxic effects were evident, including huddling in the corner of the cage.; inhibition in vivo at 23.2 µmol/kg [1, 7]: 64%; neurotoxicity in rats at subtherapeutic doses [3]: Signs of neurotoxicity |
| CC(C)CNCCCNCCCCNCCCN [Compound 8] | – | – | 14.8 ± 3.8 number of fecal pellets | 11.2 ± 2.2 number of fecal pellets | 10.6 ± 2.9 number of fecal pellets | 47% | toxic effects observed in stressed rats ([1]; 23.2 μmol/kg SC): ^gToxic effects were evident, including huddling in the corner of the cage.; inhibition in vivo at 2.3 µmol/kg [1, 8]: 30%; inhibition in vivo at 23.2 µmol/kg [1, 7]: 50% |
| CCNCCCCCNCCCCNCCCCCNCC [Compound 14, N,N′-bis[5-(ethylamino)pentyl]-1,4-butanediamine] | 0 ± 0 number of fecal pellets | 100% | 13.2 ± 6.3 number of fecal pellets | 2.2 ± 3.3 number of fecal pellets | – | 88% | Stool Output ([2]; 11.6 μmol/kg PO): 15.2 ± 8.5 number of fecal pellets; Stool Output ([2]; 23.2 μmol/kg PO): 8.6 ± 4.9 number of fecal pellets; % Reduction ([2]; 23.2 μmol/kg PO): 55%; Stool Output ([2]; 57.8 μmol/kg PO): 5.1 ± 3.1 number of fecal pellets; % Reduction ([2]; 57.8 μmol/kg PO): 73% |
| FC(F)(F)c1ccccc1CCNCCCNCCCCNCCCNCCc1ccccc1C(F)(F)F [Compound 11] | – | – | 12.4 ± 2.1 number of fecal pellets | 13.6 ± 5.1 number of fecal pellets | 11.4 ± 2.1 number of fecal pellets | – | – |
| CC(C)NCCCNCCCNCCCNC(C)C [Compound 2] | 7.4 ± 3.6 number of fecal pellets | – | 17.6 ± 5.5 number of fecal pellets | 13.6 ± 3.2 number of fecal pellets | – | – | activity at diminishing stress-induced fecal output (in words) ([1]; SC administration to stressed rats): ineffective |
| CC(C)NCCCNCCCCNCCCNC(C)C [Compound 6, N^1,N^12 diisopropylspermine] | – | – | – | 1.6 ± 1.8 number of fecal pellets | – | 90% | Stool Output ([1]; 5.8 μmol/kg SC): 4.6 ± 2.3 number of fecal pellets; inhibition in vivo at 5.8 µmol/kg ([1]; Rattus norvegicus, 5.8 μmol/kg SC, vs stressed controls, 6 h, read-out: % Reduction): 70%; oral activity against stress-induced fecal output (in words) [2]: only CHX(3,4,3)-trans, DEHSPM, and DE(5,4,5) showed any activity at all |
| CC(C)NCCCCCCNCCCNCCCNC(C)C [Compound 17] | 0 ± 0 number of fecal pellets | 100% | – | – | – | – | toxic effects observed in stressed rats ([1]; 2.32 μmol/kg SC): ^iThe rats were quite lethargic, as though sedated, after drug administration.; Stool Output ([1]; 2.32 μmol/kg SC): 1.4 ± 1.9 number of fecal pellets; toxic effects observed in stressed rats ([1]; 11.56 μmol/kg SC): ^iThe rats were quite lethargic, as though sedated, after drug administration.; Stool Output ([1]; 11.56 μmol/kg SC): 0 ± 0 number of fecal pellets; toxic effects observed in stressed rats ([1]; 57.8 μmol/kg SC): ^iThe rats were quite lethargic, as though sedated, after drug administration.; inhibition in vivo at 2.32 µmol/kg ([1]; Rattus norvegicus, 2.32 μmol/kg SC, vs stressed controls, 6 h, read-out: % Reduction): 84%; inhibition in vivo at 11.56 µmol/kg ([1]; Rattus norvegicus, 11.56 μmol/kg SC, vs stressed controls, 6 h, read-out: % Reduction): 100% |
| CCNCCCCCCNCCCNCCCNCC [Compound 16] | 0.4 ± 0.9 number of fecal pellets | 97% | – | – | – | – | Stool Output ([1]; 2.31 μmol/kg SC): 10.4 ± 5.2 number of fecal pellets; Stool Output ([1]; 11.56 μmol/kg SC): 9.4 ± 4.1 number of fecal pellets; toxic effects observed in stressed rats ([1]; 57.8 μmol/kg SC): ^iThe rats were quite lethargic, as though sedated, after drug administration. |
| CCCNCCCNCCCCNCCCNCCC [Compound 4] | 0.2 ± 0.4 number of fecal pellets | 99% | 11.4 ± 7.2 number of fecal pellets | 11.5 ± 8.7 number of fecal pellets | 5.7 ± 4.1 number of fecal pellets | 48% | inhibition in vivo at 2.3 µmol/kg [1, 8]: 49%; inhibition in vivo at 23.2 µmol/kg [1, 7]: 74% |
| c1ccc(CNCCCNCCCCNCCCNCc2ccccc2)cc1 [Compound 10] | 8.4 ± 1.5 number of fecal pellets | 55% | 12.6 ± 4.8 number of fecal pellets | 11.6 ± 2.9 number of fecal pellets | – | – | – |
